Measured values as given in patent publication US7511065B2, “Mixed lineage kinase modulators” (Eli Lilly and Company, priority 2002, dated 2009).

What follows are molecules tested against T1, MLK-7 (Homo sapiens, UniProt Q9NYL2) (assay: In vitro assay of purified MLK-7 kinase activity (33P transfer from ATP to myelin basic protein)). Details: recombinant GST-tagged MLK-7 at 1 nm, 30 uM ATP, 5 uM MBP substrate, 2 hours room temperature; read-out: MLK7 IC50.
T1 construct: GST; His tag; made in house; host or cells: Sf9 insect cells (baculovirus, pVL1392)
T1 sequence (Q9NYL2 1-455 isoform Q9NYL2-2): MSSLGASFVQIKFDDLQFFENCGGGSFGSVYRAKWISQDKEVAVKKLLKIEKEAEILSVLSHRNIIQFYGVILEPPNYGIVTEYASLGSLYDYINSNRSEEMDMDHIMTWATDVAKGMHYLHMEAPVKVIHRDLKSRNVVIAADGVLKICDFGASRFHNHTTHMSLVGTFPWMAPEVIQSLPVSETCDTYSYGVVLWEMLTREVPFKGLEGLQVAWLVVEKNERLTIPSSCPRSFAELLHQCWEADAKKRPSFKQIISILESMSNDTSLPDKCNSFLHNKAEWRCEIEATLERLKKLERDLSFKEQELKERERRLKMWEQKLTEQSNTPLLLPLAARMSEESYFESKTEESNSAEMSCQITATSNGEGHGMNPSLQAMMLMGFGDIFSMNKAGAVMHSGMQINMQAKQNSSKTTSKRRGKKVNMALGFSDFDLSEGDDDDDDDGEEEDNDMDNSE
Format: biochemical
From the text: In Vitro Assay of Purified Mixed Lineage Kinase 7 (MLK-7) Activity:
Briefly, recombinant glutathione-s-transferase (GST) tagged MLK-7 is expressed in Sf9 cells using a recombinant baculovirus created using baculovirus transfer vector pVL1392 modified to contain a GST and histidine tag. The recombinant protein is purified over a glutathione column and subsequently used for in vitro kinase assays with myelin basic protein (MBP) as the substrate for phosphorylation. The in vitro kinase reaction is run with recombinant MLK-7 at 1 nm and various concentrations of test compound in a reaction mixture containing 2 mM DTT, 30 uM ATP, 5 mM MgCl2, 5 uM MBP, 4% DMSO, 5 uCi 33P in 44 mM HEPES, (pH 7.4). The reaction is carried out for 2 hours at room temperature and then stopped by the addition of phosphoric acid to 5.5%. The phosphorylated MBP is collected on a filter and radioactivity associated with the membrane measured using a scintillation counter. Inhibitors are identified by the ability to reduce the transfer of radioactive phosphate from ATP to MBP compared to controls run without test compound.
IC50 values, defined as the concentration of test compound required to decrease the transfer of radioactive phosphate from ATP to MBP by 50%, are then determined. Ki values (which refers to the dissociation constant of an enzyme-antagonist complex and serves as an index of ligand binding) for each respective test compound can also be calculated by application of the Cheng-Prusoff equation as described in Cheng et al., Relationship Between The Inhibition Constant (Ki) and The Concentration of Inhibitor Which Causes 50% Inhibition (IC50) of an Enzymatic Reaction, Biochem. Pharmacol., 22: […]; (1973).
Representative compounds of the present invention have an IC50 in the MLK-7 kinase assay of ≦10,000 nM Table I (see infra.) provides IC50 data from the afore mentioned MLK-7 kinase assay for a representative sample of the exemplified compounds of the present invention.
In the case of `Brc1ccc(-c2ccc3c(-c4c(-c5ccccn5)nn5c4CCC5)ccnc3c2)cc1` [Example 23, 7-(4-Bromophenyl)-4-(2-pyridin-2-yl-5,6-dihydro-4H-pyrrolo[1,2-b]pyrazol-3-yl)quinoline Trifluoroacetic Acid], the IC50 is reported as at most 100 nM. In the case of `CCSc1ccc(-c2ccc3c(-c4c(-c5ccccn5)nn5c4CCC5)ccnc3c2)cc1` [Example 24, 7-(4-Ethylsulfanylphenyl)-4-(2-pyridin-2-yl-5,6-dihydro-4H-pyrrolo[1,2-b]pyrazol-3-yl)quinoline Trifluoroacetic Acid], the IC50 is reported as at most 1000 nM. `CSc1ccc(-c2ccc3c(-c4c(-c5ccccn5)nn5c4CCC5)ccnc3c2)cc1` [Example 25, 7-(4-Methylsulfanylphenyl)-4-(2-pyridin-2-yl-5,6-dihydro-4H-pyrrolo[1,2-b]pyrazol-3-yl)quinoline Trifluoroacetic Acid] gave an IC50 of at most 1000 nM. Work on `N#Cc1ccc(-c2ccc3c(-c4c(-c5ccccn5)nn5c4CCC5)ccnc3c2)cc1` [Example 26, 4-[4-(2-Pyridin-2-yl-5,6-dihydro-4H-pyrrolo[1,2-b]pyrazol-3-yl)quinolin-7-yl]benzonitrile Trifluroacetic Acid] yielded an IC50 of at most 100 nM. In the case of `c1ccc(-c2nn3c(c2-c2ccnc4cc(-c5ccc6[nH]ccc6c5)ccc24)CCC3)nc1` [Example 27, 7-(1H-Indol-5-yl)-4-(2-pyridin-2-yl-5,6-dihydro-4H-pyrrolo[1,2-b]pyrazol-3-yl)quinoline Ditrifluoroacetic Acid], the IC50 is reported as at most 100 nM. Work on `CC(=O)c1ccc(-c2ccc3c(-c4c(-c5ccccn5)nn5c4CCC5)ccnc3c2)cc1` [Example 28, 1-{4-[4-(2-Pyridin-2-yl-5,6-dihydro-4H-pyrrolo[1,2-b]pyrazol-3-yl)quinolin-7-yl]phenyl}ethanone Trifluoroacetic Acid] yielded an IC50 of at most 100 nM. With `O=C(O)CCc1ccc(-c2ccc3c(-c4c(-c5ccccn5)nn5c4CCC5)ccnc3c2)cc1` [Example 30, 3-{4-[4-(2-Pyridin-2-yl-5,6-dihydro-4H-pyrrolo[1,2-b]pyrazol-3-yl)quinolin-7-yl]phenyl}propionic Acid Trifluoroacetic Acid] the IC50 was at most 100 nM. `COc1ccc(-c2ccc3c(-c4c(-c5ccccn5)nn5c4CCC5)ccnc3c2)cc1C` [Example 32, 7-(4-Methoxy-3-methylphenyl)-4-(2-Pyridin-2-yl-5,6-dihydro-4H-pyrrolo[1,2-b]pyrazol-3-yl)quinoline Trifluoroacetic Acid] gave an IC50 of at most 1000 nM. Molecule `Cc1ccc(-c2ccc3c(-c4c(-c5ccccn5)nn5c4CCC5)ccnc3c2)cc1N` [Example 33, 2-Methyl-5-[4-(2-Pyridin-2-yl-5,6-dihydro-4H-pyrrolo[1,2-b]pyrazol-3-yl)quinolin-7-yl]phenylamine Ditrifluoroacetic Acid] has an IC50 of at most 100 nM. For `c1ccc(-c2nn3c(c2-c2ccnc4cc(-c5ccncc5)ccc24)CCC3)nc1` [Example 34, 7-Pyridin-4-yl-4-(2-Pyridin-2-yl-5,6-dihydro-4H-pyrrolo[1,2-b]pyrazol-3-yl)quinoline Ditrifluoroacetic Acid], the IC50 was at most 100 nM. For `c1ccc(-c2nn3c(c2-c2ccnc4cc(-c5cccnc5)ccc24)CCC3)nc1` [Example 35, 7-Pyridin-3-yl-4-(2-Pyridin-2-yl-5,6-dihydro-4H-pyrrolo[1,2-b]pyrazol-3-yl)quinoline Ditrifluoroacetic Acid], the IC50 was at most 100 nM. Work on `O=[N+]([O-])c1ccccc1-c1ccc2c(-c3c(-c4ccccn4)nn4c3CCC4)ccnc2c1` [Example 36, 7-(2-Nitrophenyl)-4-(2-pyridin-2-yl-5,6-dihydro-4H-pyrrolo[1,2-b]pyrazol-3-yl)quinoline Trifluoroacetic Acid] yielded an IC50 of at most 1000 nM. `CC(=O)Nc1cccc(-c2ccc3c(-c4c(-c5ccccn5)nn5c4CCC5)ccnc3c2)c1` [Example 37, N-{3-[4-(2-pyridin-2-yl-5,6-dihydro-4H-pyrrolo[1,2-b]pyrazol-3-yl)quinolin-7-yl]phenyl}-acetamide Trifluoroacetic Acid] showed an IC50 of at most 100 nM. For `C[S+]([O-])c1ccc(-c2ccc3c(-c4c(-c5ccccn5)nn5c4CCC5)ccnc3c2)cc1` (centres unmarked) [Example 38, 7-(4-Methanesulfinylphenyl)-4-(2-pyridin-2-yl-5,6-dihydro-4H-pyrrolo[1,2-b]pyrazol-3-yl)quinoline Trifluoroacetic Acid], the IC50 was at most 100 nM. `c1ccc(-c2nn3c(c2-c2ccnc4cc(-c5ccc6c(c5)OCO6)ccc24)CCC3)nc1` [Example 40, 7-Benzo[1,3]dioxol-5-yl-4-(2-pyridin-2-yl-5,6-dihydro-4H-pyrrolo[1,2-b]pyrazol-3-yl)quinoline Trifluoroacetic Acid] gave an IC50 of at most 100 nM. With `O=C(O)c1ccc(-c2ccc3c(-c4c(-c5ccccn5)nn5c4CCC5)ccnc3c2)cc1` [Example 41, 4-[4-(2-pyridin-2-yl-5,6-dihydro-4H-pyrrolo[1,2-b]pyrazol-3-yl)quinolin-7-yl]benzoic Acid Trifluoroacetic Acid] the IC50 was at most 100 nM. With `FC(F)(F)c1cc(-c2ccc3c(-c4c(-c5ccccn5)nn5c4CCC5)ccnc3c2)cc(C(F)(F)F)c1` [Example 42, 7-(3,5-Bis-trifluromethylphenyl)-4-(2-pyridin-2-yl-5,6-dihydro-4H-pyrrolo[1,2-b]pyrazol-3-yl)quinoline Trifluoroacetic Acid] the IC50 was at most 10000 nM. Molecule `O=C(O)c1cccc(-c2ccc3c(-c4c(-c5ccccn5)nn5c4CCC5)ccnc3c2)c1` [Example 43, 3-[4-(2-pyridin-2-yl-5,6-dihydro-4H-pyrrolo[1,2-b]pyrazol-3-yl)quinolin-7-yl]benzoic Acid Trifluoroacetic Acid] has an IC50 of at most 100 nM. `O=C(O)c1ccccc1-c1ccc2c(-c3c(-c4ccccn4)nn4c3CCC4)ccnc2c1` [Example 44, 2-[4-(2-pyridin-2-yl-5,6-dihydro-4H-pyrrolo[1,2-b]pyrazol-3-yl)quinolin-7-yl]benzoic Acid Trifluoroacetic Acid] was tested, and the IC50 was at most 10000 nM. `CC(C)Cc1ccc(-c2ccc3c(-c4c(-c5ccccn5)nn5c4CCC5)ccnc3c2)cc1` [Example 45, 7-(4-Isobutylphenyl)-4-(2-pyridin-2-yl-5,6-dihydro-4H-pyrrolo[1,2-b]pyrazol-3-yl)quinoline Trifluoroacetic Acid] was tested, and the IC50 was at most 1000 nM. In the case of `O=C(O)COc1ccc(-c2ccc3c(-c4c(-c5ccccn5)nn5c4CCC5)ccnc3c2)cc1` [Example 46, {4-[4-(2-pyridin-2-yl-5,6-dihydro-4H-pyrrolo[1,2-b]pyrazol-3-yl)quinolin-7-yl]phenoxy}acetic Acid Trifluoroacetic Acid], the IC50 is reported as at most 100 nM. `c1ccc(-c2nn3c(c2-c2ccnc4cc(-c5cc6ccccc6s5)ccc24)CCC3)nc1` [Example 47, 7-Benzo[b]thiophen-2-yl-4-(2-pyridin-2-yl-5,6-dihydro-4H-pyrrolo[1,2-b]pyrazol-3-yl)quinoline Trifluoroacetic Acid] showed an IC50 of at most 1000 nM. In the case of `c1ccc(-c2nn3c(c2-c2ccnc4cc(-c5cc6ccccc6o5)ccc24)CCC3)nc1` [Example 48, 7-Benzofuran-2-yl-4-(2-pyridin-2-yl-5,6-dihydro-4H-pyrrolo[1,2-b]pyrazol-3-yl)quinoline Trifluoroacetic Acid], the IC50 is reported as at most 100 nM. In the case of `c1ccc(-c2nn3c(c2-c2ccnc4cc(-c5ccsc5)ccc24)CCC3)nc1` [Example 50, 4-(2-pyridin-2-yl-5,6-dihydro-4H-pyrrolo[1,2-b]pyrazol-3-yl)-7-thiophen-3-yl-quinoline Trifluoroacetic Acid], the IC50 is reported as at most 100 nM. With `c1ccc(-c2nn3c(c2-c2ccnc4cc(-c5ccoc5)ccc24)CCC3)nc1` [Example 51, 7-Furan-3-yl-4-(2-pyridin-2-yl-5,6-dihydro-4H-pyrrolo[1,2-b]pyrazol-3-yl)quinoline Trifluoroacetic Acid] the IC50 was at most 100 nM. Molecule `c1ccc(-c2nn3c(c2-c2ccnc4cc(-c5ccc(C6CCCCC6)cc5)ccc24)CCC3)nc1` [Example 53, 7-(4-Cyclohexyl-phenyl)-4-(2-pyridin-2-yl-5,6-dihydro-4H-pyrrolo[1,2-b]pyrazol-3-yl)-quinoline Trifluoroacetic Acid] has an IC50 of at most 10000 nM. With `Clc1ccc(-c2ccc3c(-c4c(-c5ccccn5)nn5c4CCC5)ccnc3c2)cc1Cl` [Example 55, 7-(3,4-Dichlorophenyl)-4-(2-pyridin-2-yl-5,6-dihydro-4H-pyrrolo[1,2-b]pyrazol-3-yl)-quinoline] the IC50 was at most 1000 nM. For `Cc1cccc(-c2nn3c(c2-c2ccnc4cc(-c5ccc(C(=O)O)cc5)ccc24)CCC3)n1` [Example 57, 4-{4-[2-(6-Methyl-pyridin-2-yl)-5,6-dihydro-4H-pyrrolo[1,2-b]pyrazol-3-yl]-quinolin-7-yl}-benzoic acid], the IC50 was at most 100 nM. In the case of `Cc1cccc(-c2nn3c(c2-c2ccnc4cc(-c5ccc(CCC(=O)O)cc5)ccc24)CCC3)n1` [Example 58, 3-(4-{4-[2-(6-Methyl-pyridin-2-yl)-5,6-dihydro-4H-pyrrolo[1,2-b]pyrazol-3-yl]-quinolin-7-yl}-phenyl)-propionic acid], the IC50 is reported as at most 100 nM.
